Laboratory results from patent US8921373B2, “Compounds having TRPV1 antagonistic activity and uses thereof” (Shionogi & Co., Ltd., priority 2010, dated 2014).
pIC50: −log10 of the molar value.

Legend:
human recombinant TRPV1 [1] = molecular target: T1, human recombinant TRPV1 (Homo sapiens (Human), UniProt Q8NER1); experiment: TRPV1 Capsaicin-Based Assay (Protocol 2, TRPV1/CHO cells, Fluo-4, FLIPR); type: cell-based; details: TRPV1/CHO cells, capsaicin 100 nM final
Protocol: (§1) For Protocol 2, a Chinese Hamster Ovary cell line (CHO) that has been engineered to constitutively express human recombinant TRPV1 was used (TRPV1/CHO cells). The TRPV1/CHO cell line was generated as described below.
One day prior to assay, TRPV1/CHO cells were seeded in 96-well clear-bottom black plates (20,000 cells/well) in growth media. On the day of the experiment, the cells were washed with 0.2 mL 1× Hank's Balanced Salt Solution (Life Technologies) containing 1.6 mM CaCl2 and 20 mM HEPES, pH 7.4 (“wash buffer”). Subsequently, the cells were loaded by incubation in 0.1 mL of wash buffer containing Fluo-4 at 3 μM final concentration. After 1 hour, the cells were washed twice with 0.2 mL wash buffer and resuspended in 0.1 mL wash buffer. The plates were then transferred to a Fluorescence Imaging Plate Reader (Molecular Devices). Fluorescence intensity was monitored for 15 seconds to establish a baseline. Subsequently, test compounds diluted in assay buffer (1× Hank's Balanced Salt Solution containing 1 mM CaCl2 and 20 mM HEPES, pH 7.4) containing 1% DMSO were added to the cell plate and fluorescence was monitored for 2 minutes. […] Human TRPV1 was then activated by the addition of 50 μL capsaicin (100 nM final concentration) and plates incubated for an additional 3 min. Data were collected over the entire time course and analyzed using Excel and the curve-fitting formula GraphPad Prism.

human recombinant TRPV1 [2] = molecular target: T1, human recombinant TRPV1; experiment: TRPV1 pH-Based Assay (Protocol 2, Ca2+ response in TRPV1/CHO cells, Fura-2); type: cell-based; details: TRPV1/CHO cells, pH 5.0-5.1
Protocol: as §1
TRPV1/CHO cells were seeded in the 96-well clear-bottom black-wall plate (Nunc) at densities of 1-2×10^4 cells/well and grown in 100 μL of culture medium (alpha-MEM supplemented with 10% FBS, 20 mM HEPES, 1 mg/mL geneticin and 1% antibiotic-antimycotic mixed stock solution) for 1-2 days before the experiment.
(2) The 96-well plate was incubated at 37° C. for 45 min.
(3) The loading buffer was removed from each well. […] The wells were then refilled with 80 μL of measuring buffer.
(4) After an incubation at 4° C. for 15 min, the 96-well plate was transferred to FDSS-3000 (Hamamatsu Photonics, Japan).
(5) The Fura-2 fluorescent intensity was monitored at a wavelength of 340 nm and at 380 nm, respectively, at a rate of 0.5 Hz for a total of 240 seconds. After 16 time points (32 sec) of baseline detection, 20 μL of agonist solution was added to each well. The final volume was 100 μL/well.
(6) Fluorescence intensity ratio refers to the fluorescence intensity at 340 nm over the fluorescence intensity at 380 nm at a particular time point. The baseline was set as the average of the fluorescent intensity ratios for the first 16 time points before the addition of agonist solution. The maximum response was the highest fluorescent intensity ratio during the 60 time points following addition of agonist solution.
(7) Maximal signal ratios from each well were calculated as output data using the FDSS-3000 analysis program. Data were analyzed using Excel (Microsoft) and XLfit (idbs) software.
Two different agonist solutions with different H2SO4 concentrations were used for the pH assay (FIG. 3A). For one half of a 96-well plate one agonist solution was used, for the other half the other agonist solution. The agonist solutions were obtained by diluting sulfuric acid (H2SO4, 1M) with measuring buffer. The concentrations for the two agonist solutions were determined as described above in Section 2 of Protocol 2.
The sulfuric acid concentrations between the two agonist solutions differed by 0.5 mM. […] After 1:4 dilution of the agonist solutions, the final sulfuric acid concentration was 3.2 mM and 3.3 mM, respectively. The resulting pH value for the pH assay was 5.0 to 5.1.
Test compounds were dissolved in DMSO to yield 1 mM stock solutions. […] The thereby-obtained solutions were further diluted in measuring buffer (1:100) as 10× stock serial dilutions with a DMSO concentration of 1%. 10 μL of a 10× stock was added into each well at step 3.3.(4) of Protocol 2.
Steps (1) and (2) of this Assay were the same as steps 2.2.(1) and 2.2.(2) of Protocol 2, respectively.
(3) The cells were washed twice with 150 μL of measuring buffer (mentioned in 2.2.(3) of Protocol 2, no probenecid). The wells were subsequently refilled with 70 μL of measuring buffer.
(4) Either 10 μl of measuring buffer or 10 μL of 10× stock serial dilution of test compound (described in 3.2. above) were applied to each well. Usually, only one test compound was tested per 96-well plate. The number of replicates per 96-well plate for a particular antagonist at a particular concentration was 7×2 since two different sulfuric acid concentrations were used per 96-well plate (N=7×2) (FIG. 3).
Step (5) was the same as 2.2.(4) above.
(6) Fura-2 fluorescent intensity was monitored as described in 2.2.(5) above. After 16 time points of baseline detection, 20 μL of agonist solution (measuring buffer titrated with H2SO4 to yield pH 5.0-5.1 when mixed 1:4 with the measuring buffer containing test compound) was added to each well (final volume 100 μL/well).
Steps (7) and (8) were as described in 2.2.(6) and 2.2.(7) above, respectively.
(1) The pH values of the buffer in the wells of A1→H1 and A7→H7 (longitudinally; FIG. 3) were measured one by one using a portable pH meter.

[3] = read-out: IC50 value by the Capsaicin-Based Assay
[4] = read-out: IC50 value by the pH-Based Assay
[5] = compounds of the invention, read-out: TRPV1 IC50 Potency (Capsaicin-Based Assay), Compound IC50
[6] = compounds of the invention, read-out: TRPV1 IC50 Potency (pH-Based Assay), Compound IC50
[7] = comparative compounds without the substituted alkyl group, read-out: TRPV1 IC50 Potency (pH-Based Assay), Comparative compound IC50

T1 sequence (Q8NER1 whole entry): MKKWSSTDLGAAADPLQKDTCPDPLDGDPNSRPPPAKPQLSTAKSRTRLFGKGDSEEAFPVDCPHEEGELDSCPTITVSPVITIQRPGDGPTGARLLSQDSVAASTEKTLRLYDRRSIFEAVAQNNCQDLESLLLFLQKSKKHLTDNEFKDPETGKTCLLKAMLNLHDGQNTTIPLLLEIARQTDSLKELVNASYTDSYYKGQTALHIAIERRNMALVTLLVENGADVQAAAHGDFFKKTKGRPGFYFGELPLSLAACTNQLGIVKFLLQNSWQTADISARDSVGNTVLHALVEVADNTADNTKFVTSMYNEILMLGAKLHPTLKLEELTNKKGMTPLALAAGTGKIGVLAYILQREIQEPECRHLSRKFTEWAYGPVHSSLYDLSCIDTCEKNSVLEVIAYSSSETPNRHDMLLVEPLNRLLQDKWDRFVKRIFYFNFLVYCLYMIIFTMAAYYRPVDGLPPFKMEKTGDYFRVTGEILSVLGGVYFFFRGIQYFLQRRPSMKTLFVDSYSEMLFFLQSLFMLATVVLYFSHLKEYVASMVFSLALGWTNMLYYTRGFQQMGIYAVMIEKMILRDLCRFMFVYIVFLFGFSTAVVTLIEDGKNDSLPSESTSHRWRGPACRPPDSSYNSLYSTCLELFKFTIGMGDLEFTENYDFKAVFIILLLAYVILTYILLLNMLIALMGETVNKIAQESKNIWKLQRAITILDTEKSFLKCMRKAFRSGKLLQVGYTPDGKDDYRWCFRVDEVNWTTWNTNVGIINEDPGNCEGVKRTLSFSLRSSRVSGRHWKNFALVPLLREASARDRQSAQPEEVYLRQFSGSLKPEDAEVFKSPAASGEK

| pIC50 (human recombinant TRPV1 [1]; [3]) | pIC50 (human recombinant TRPV1 [2]; [4]) | SMILES | other results |
| --- | --- | --- | --- |
| ≥ 7.30 | ≥ 7.30 | Cc1cc(C[C@@H](O)CO)cnc1N1CCN(C(=O)Nc2nc3ccc(Cl)cc3s2)[C@H](C)C1 [ADJ, (R)-N-(6-chlorobenzo[d]thiazol-2-yl)-4-{5-[(R)-2,3-dihydroxypropyl]-3-methylpyridin-2-yl}-2-methylpiperazine-1-carboxamide] | – |
| ≥ 7.30 | ≥ 7.30 | C[C@H]1CN(C(=O)Nc2nc3ccc(Cl)cc3s2)CCN1c1ncc(C[C@@H](O)CO)cc1F [AFR] | – |
| ≥ 7.30 | ≥ 7.30 | C[C@H]1CN(c2ncc(C[C@H](O)CO)cc2C(F)(F)F)CCN1C(=O)Nc1nc2ccc(F)cc2s1 [AGW] | – |
| ≥ 7.30 | ≥ 7.30 | C[C@H]1CN(c2ncc(C[C@@H](O)CO)cc2Cl)CCN1C(=O)Nc1nc2ccc(F)cc2s1 [ADY] | – |
| ≥ 7.30 | ≥ 7.30 | C[C@H]1CN(c2ncc(C[C@@H](O)CO)cc2Cl)CCN1C(=O)Nc1nc2ccc(Cl)cc2s1 [AEE] | – |
| ≥ 7.30 | – | C[C@@H]1CN(c2ncc(C[C@@H](O)CO)cc2Cl)CCN1C(=O)Nc1nc2ccc(F)cc2s1 [ACU, (R)-4-(3-chloro-5-((R)-2,3-dihydroxypropyl)pyridin-2-yl)-N-(6-fluorobenzo[d]thiazol-2-yl)-2-methylpiperazine-1-carboxamide] | – |
| – | ≥ 7.30 | C[C@H]1CN(c2ncc(C[C@H](O)CO)cc2F)CCN1C(=O)Nc1nc2ccc(SC(F)(F)F)cc2s1 [AGR] | – |
| – | ≥ 7.30 | C[C@H]1CN(c2ncc(C[C@H](O)CO)cc2F)CCN1C(=O)Nc1nc2cc(F)c(F)cc2s1 [AEZ] | – |
| – | ≥ 7.30 | Cc1cc2nc(NC(=O)N3CCN(c4ncc(C[C@@H](O)CO)cc4F)C[C@@H]3C)sc2cc1C [AET] | – |

The remaining lines, values behind:

| SMILES | pIC50 (human recombinant TRPV1 [1]; [3]) | pIC50 (human recombinant TRPV1 [2]; [4]) | other results |
| --- | --- | --- | --- |
| C[C@H]1CN(c2ncc(C[C@H](O)CO)cc2Cl)CCN1C(=O)Nc1nc2ccccc2s1 [AED] | ≥ 7.30 | ≥ 7.30 | – |
| CC1(C)CN(c2ncc(C[C@H](O)CO)cc2F)CCN1C(=O)Nc1nc2ccc(F)cc2s1 [AFT] | ≥ 7.30 | ≥ 7.30 | – |
| Cc1cc(C[C@@H](O)CO)cnc1N1CCN(C(=O)Nc2nc3ccc(F)cc3s2)CC1 [ADA, (R)-4-(5-(2,3-dihydroxypropyl)-3-methylpyridin-2-yl)-N-(6-fluorobenzo[d]-thiazol-2-yl)piperazine-1-carboxamide] | ≥ 7.30 | ≥ 7.30 | – |
| C[C@H]1CN(c2ncc(C[C@@H](O)CO)cc2Cl)CCN1C(=O)Nc1nc2ccccc2s1 [AEA] | ≥ 7.30 | ≥ 7.30 | – |
| C[C@H]1CN(c2ncc(C[C@H](O)CO)cc2C(F)(F)F)CCN1C(=O)Nc1nc2ccccc2s1 [AGY] | ≥ 7.30 | ≥ 7.30 | – |
| Cc1cc(NC(=O)N2CCC(F)(c3ncccc3F)CC2)ccc1OC(F)(F)F [reference compound] | – | – | pIC50 (human recombinant TRPV1 [1]; comparative compounds, read-out: TRPV1 IC50 Potency (Capsaicin-Based Assay), Comparative compound IC50): 7.00 |
| C[C@@H]1CN(c2ncc(C[C@H](O)CO)cc2F)C[C@H](C)N1C(=O)Nc1nc2ccc(F)cc2s1 [AFU] | – | ≥ 7.30 | – |
| O=C(Nc1nc2ccc(F)cc2s1)N1CCC(F)(c2ncc(C[C@H](O)CO)cc2Cl)CC1 | – | – | pIC50 (human recombinant TRPV1 [1]; [5]): 6.94 |
| C[C@H]1CN(C(=O)Nc2nc3ccc(F)cc3s2)CCN1c1ncc(C[C@H](O)CO)cc1F [AFM, (S)-4-(5-((S)-2,3-dihydroxypropyl)-3-fluoropyridin-2-yl)-N-(6-fluorobenzo[d]thiazol-2-yl)-3-methylpiperazine-1-carboxamide] | – | ≥ 7.30 | – |
| O=C(Nc1ccc(OC(F)(F)F)c(Cl)c1)N1CC=C(c2ncc(C[C@@H](O)CO)cc2Cl)CC1 | – | – | pIC50 (human recombinant TRPV1 [2]; [6]): 7.77 |
| C[C@H]1CN(C(=O)Nc2nc3cc(F)c(F)cc3s2)CCN1c1ncc(C[C@H](O)CO)cc1F [AGL] | – | ≥ 7.30 | – |
| Cc1cc(NC(=O)N2CC=C(c3ncc(C[C@H](O)CO)cc3Cl)CC2)ccc1C(F)(F)F [ACG, (S)-4-(3-Chloro-5-(2,3-dihydroxypropyl)pyridin-2-yl)-N-(3-methyl-4-(trifluoromethyl)phenyl)-5,6-dihydropyridine-1(2H)-carboxamide] | – | ≥ 7.30 | – |
| O=C(Nc1nc2ccc(F)cc2s1)N1C2CCC1CN(c1ncc(C[C@H](O)CO)cc1F)C2 [AHB] | – | ≥ 7.30 | – |
| Cc1cc(NC(=O)N2CCC(F)(c3ncc(C[C@H](O)CO)cc3F)CC2)ccc1OC(F)(F)F [drawing 496] | – | – | pIC50 (human recombinant TRPV1 [1]; [5]): 7.34 |
| O=C(Nc1ccc(C(F)(F)F)cn1)N1CC=C(c2ncc(CC(O)CO)cc2Cl)CC1 (centres unmarked) | – | – | pIC50 (human recombinant TRPV1 [2]; [6]): 7.42 |
| O=C(Nc1nc2ccc(C(F)(F)F)cc2s1)N1CCC(F)(c2ncc(C[C@H](O)CO)cc2Cl)CC1 | – | – | pIC50 (human recombinant TRPV1 [2]; [6]): 6.21 |
| O=C(Nc1ccc(C(F)(F)F)c(Cl)c1)N1CCC(F)(c2ncc([C@H](O)[C@@H](O)CO)cc2Cl)CC1 [ABG, N-(3-Chloro-4-(trifluoromethyl)phenyl)-4-(3-chloro-5-((1S,2S)-1,2,3-trihydroxypropyl)pyridin-2-yl)-4-fluoropiperidine-1-carboxamide] | – | ≥ 7.30 | – |
| Cc1cc(NC(=O)N2CCC(F)(c3ncc(C[C@H](O)CO)cc3F)CC2)ccc1OC(F)(F)F [ACR, (S)-4-(5-(2,3-dihydroxypropyl)-3-fluoropyridin-2-yl)-4-fluoro-N-(3-methyl-4-(trifluoromethoxy)phenyl)piperidine-1-carboxamide] | – | ≥ 7.30 | – |
| C[C@@H]1CN(c2ncc(C[C@@H](O)CO)cc2F)CCN1C(=O)Nc1nc2ccc(Cl)cc2s1 [drawing 500] | – | – | pIC50 (human recombinant TRPV1 [1]; [5]): 8.10 |
| O=C(Nc1nc2ccccc2s1)N1CCN(c2ncc(C[C@H](O)CO)cc2Cl)CC1 [ADS] | – | ≥ 7.30 | – |
| Cc1cc(NC(=O)N2CC=C(c3ncc(C[C@@H](O)CO)cc3Cl)CC2)ccc1C(F)(F)F [drawing 501] | – | – | pIC50 (human recombinant TRPV1 [1]; [5]): 7.40 |
| O=C(Nc1nc2ccc(F)cc2s1)N1CC=C(c2ncccc2Cl)CC1 [reference compound] | – | – | pIC50 (human recombinant TRPV1 [2]; [7]): 6.03 |
| Cc1cc([C@H](O)[C@@H](O)CO)cnc1C1(F)CCN(C(=O)Nc2ccc(C(F)(F)F)c(Cl)c2)CC1 [ABH, N-(3-Chloro-4-(trifluoromethyl)phenyl)-4-fluoro-4-(3-methyl-5-((1S,2S)-1,2,3-trihydroxypropyl)pyridin-2-yl)piperidine-1-carboxamide] | – | ≥ 7.30 | – |
| O=C(Nc1ccc(C(F)(F)F)c(Cl)c1)N1CC=C(c2ncccc2Cl)CC1 [drawing 478, reference compound] | – | – | pIC50 (human recombinant TRPV1 [2]; [7]): 6.86 |
| O=C(Nc1ccc(C(F)(F)F)c(Cl)c1)N1CC=C(c2ncc(CC(O)CO)cc2Cl)CC1 (centres unmarked) | – | – | pIC50 (human recombinant TRPV1 [2]; [6]): 8.00 |
